Measurements reported in US10300104B2, “Multi-arm linker for treating rejection reaction in transplantation” (Immunwork Inc., priority 2015, dated 2019).

Legend:
scFv specific for CTLA-4 = assay: Western blot of recombinant CTLA-4 with scFv specific for CTLA-4; format: binding; conditions: scFv specific for CTLA-4 1 μg/ml; FIG. 14C
Method: Recombinant CTLA-4 protein was analyzed and detected using western blotting. Briefly, 50 μl of the purified CTLA-4 protein was electrophoresed on the 12% SDS-PAGE gel (lane 2) and electroblotted over to a PDVF membrane. The protein (CTLA-4)-IgG1Fc-(scFv α HLA-A1) was used as a positive control (lane 1). After blocking with 5% BSA in TBST at room temperature for 1 hour, the diluted scFv specific for CTLA-4 (1 μg/ml) was added and incubated with the membrane overnight at 4° C. with gentle shaking. The membrane was rinsed and washed 3 times with TBST. The diluted HRP-conjugated protein L (1:5000) was added and incubated with the membrane at room temperature for 1 hour, and the rinse and wash cycle was repeated with TBST for 3 times. The membrane was then incubated with HRP substrate solution for 20 minutes before being exposed to the photographic film.

[1] = system: mTOR/p70S6K signaling pathway; assay: Western blot analysis of mTOR/p70S6K signaling pathway in Jurkat T cells; format: cell-based, human; conditions: 10 ng/ml IL2, 100 nM, 24 hours, FIG. 20A
Method: To examine the biological activities of these compounds, western blot analysis of mTOR/p70S6K signaling pathway and T-cell proliferation assay were performed with human Jurkat T cells. T-cell viability and proliferation were assessed using alamarBlue® cell viability reagent (Invitrogen).
For the western blot analysis of mTOR/p70S6K signaling pathway, briefly, Jurkat T cell were seeded into 6-cm cell culture dish in RPM11640 medium containing 10% fetal bovine serum.
Insoluble material was collected by centrifugation at 14,000×g for 20 minutes at 4° C. The cell lysate samples were separated on 10% SDS-PAGE gels and transferred to a PVDF membrane (Millipore). The membrane blots were blocked in PBS containing 5% BSA for 1 hour at room temperature, and incubated with primary antibodies, anti-phospho-p70S6K antibody (Cell Signaling Technology, Danvers, USA) and anti-p70S6K antibody (Cell Signaling Technology), overnight at 4° C. […] Then the membranes were washed three times with TBST, and immunoreacted bands were detected with ECL™ western blotting detection reagents (Millipore) and exposed on Fujifilm (Tokyo, Japan). Relative quantification of ECL signals on X-ray films were analyzed by using Image J (NIH, Bethesda, Md., USA).

PD1-IgG1.Fc = target: T1, PD1-IgG1.Fc (Homo sapiens, UniProt Q15116); assay: ELISA of recombinant PD-L1 binding to PD1-IgG1.Fc; conditions: plate coated with PD-L1 50 μg/ml; PD1-IgG1.Fc 50 μg/ml; FIG. 14D
T1 construct: made in house; host or cells: Expi293F
T1 sequence (Q15116 with tags, fused parts or gaps): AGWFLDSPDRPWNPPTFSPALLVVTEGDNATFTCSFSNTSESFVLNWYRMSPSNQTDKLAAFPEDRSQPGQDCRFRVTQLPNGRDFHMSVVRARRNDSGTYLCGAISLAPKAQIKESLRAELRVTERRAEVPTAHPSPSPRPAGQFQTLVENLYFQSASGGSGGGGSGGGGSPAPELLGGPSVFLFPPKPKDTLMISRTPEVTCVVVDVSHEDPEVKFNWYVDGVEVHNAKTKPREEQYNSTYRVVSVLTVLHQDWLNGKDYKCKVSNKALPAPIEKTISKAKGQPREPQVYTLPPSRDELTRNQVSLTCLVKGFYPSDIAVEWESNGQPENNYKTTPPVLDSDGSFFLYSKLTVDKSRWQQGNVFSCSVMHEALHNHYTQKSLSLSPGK
Method: Binding activity of recombinant PD-L1 protein was assayed with ELISA using a 96-well plate coated with recombinant PD-L1 protein in 50 μg/ml concentration, 100 μl per well. After the excess PD-L1 was washed off and the solid phase blocked, 100 μl per well of PD1-IgG1.Fc at 50 μg/ml was added. The bound PD1-IgG1.Fc was determined by HRP-conjugated goat anti-human IgG.Fc. 50 μl of TMB substrate was added for color development. The reaction was stopped by 50 μl of 1M HCl. Absorbance at 450 nm was measured with a plate reader. Each bar represents the mean OD450 value of duplicate samples.

human HLA-A2 = target: T2, human HLA-A2 (Homo sapiens, UniProt P04439); assay: Single colony ELISA of phage-displayed scFvs specific for human HLA-A2; format: binding; conditions: HLA-A2 0.5 μg/100 μl per well; FIG. 16B
T2 construct: made in house; host or cells: Expi293F
Method: E. coli strain ER2738 infected with single-clonal phages each harboring a selected scFv gene in its phagemid was grown in the mid-log phase in 2YT broth (16 g/l tryptone, 10 g/l yeast extract, 5 g/l NaCl, pH 7.0) with 100 μg/ml ampicillin in deep well at 37° C. with shaking. After the broth reached an OD600 of 1.0, IPTG was added to a final concentration of 1 μg/ml. The plates were incubated at 37° C. overnight under rigorously shaking. Thereafter, the plates were centrifuged at 4,000 g for 15 minutes at 4° C.
For soluble scFv binding test, ELISA was carried out. Briefly, 96-well Maxisorp 96-well plate (Nunc) was coated with human HLA-A2 (0.5 μg/100 μl PBS per well) or two negative control antigens, human heat shock protein 70 (Hsp 70) and RSV-IgG1.Fc fusion protein (prepared by our laboratory), for 18 hours with shaking at 4° C. After being treated with 300 μl of blocking buffer for 1 hour, 100 μl of secreted scFv in the supernatant was mixed with 100 μl of blocking buffer and then added to the coated plate for another 1 hour. Goat anti-E-tag antibody (conjugated with HRP, 1:4000, Cat. No. AB19400, Abcam) was added to the plate for 1 hour. TMB substrate (50 μl per well) was added to the wells and the absorbance at 450 nm was measured after reactions were stopped by adding 1N HCl (50 μl per well).

recombinant HLA-A1 = target: T3, recombinant HLA-A1 (Homo sapiens, UniProt P04439); assay: ELISA of tetrazine-conjugated scFv specific for human HLA-A1; format: binding; conditions: FIG. 17B
T3 construct: made in house; host or cells: Expi293F
Excerpt: The purity of tetrazine-conjugated scFv specific for human HLA-A1 was identified through Coomassie blue staining of 12% SDS-PAGE. FIGS. 17A and 17B show, respectively, the mass spectrometric and ELISA analysis of tetrazine-conjugated scFv specific for human HLA-A1, in which unmodified scFv specific for human HLA-A1 was used as a positive control.

recombinant human CTLA-4: recombinant human CTLA-4 (SEQ ID NO: 30) with GGGGSGGGGS linker and terminal cysteine
binding by the scFv specific for CTLA-4 (western blot) (scFv specific for CTLA-4): specifically bound

CO[C@H]1C[C@@H]2CC[C@@H](C)[C@@](O)(O2)C(=O)C(=O)N2CCCC[C@H]2C(=O)O[C@H]([C@H](C)C[C@@H]2CC[C@@H](OC(=O)CN)[C@H](OC)C2)CC(=O)[C@H](C)/C=C(\C)[C@@H](O)[C@@H](OC)C(=O)[C@H](C)C[C@H](C)/C=C/C=C/C=C/1C [sirolimus-Gly, Sirolimus monoglycine]
mTOR/p70S6K signally pathway in the treated T cells, compared with unmodified sirolimus [1]: blocked | phosphorylated level of p70S6K [1]: decreased

CO[C@H]1C[C@@H]2CC[C@@H](C)[C@@](O)(O2)C(=O)C(=O)N2CCCC[C@H]2C(=O)O[C@H]([C@H](C)C[C@@H]2CC[C@@H](OC(=O)CNC(=O)CN)[C@H](OC)C2)CC(=O)[C@H](C)/C=C(\C)[C@@H](O)[C@@H](OC)C(=O)[C@H](C)C[C@H](C)/C=C/C=C/C=C/1C [sirolimus-diGly, sirolimus di-glycine]
mTOR/p70S6K signally pathway in the treated T cells, compared with unmodified sirolimus [1]: blocked | phosphorylated level of p70S6K [1]: decreased

recombinant human PD-L1: recombinant human PD-L1 (SEQ ID NO: 31) with GGGGSGGGGS linker and terminal cysteine
binding to recombinant PD1-IgG1.Fc (ELISA) (PD1-IgG1.Fc): specifically bound

B1: 3E10: phage-displayed human scFv clone specific for human HLA-A2, SEQ ID NO: 34 (protein)
scFv: DIQMTQSPSSLSASVGDRVTITCRASQDVFFFVAWYQQKPGKAPKLLIYGPPGLYSGVPSRFSGSGSGTDFTLTISSLQPEDFATYYCQQYFSFPITFGQGTKVEIKRGGGGSIEGRSGGGGSEVQLVESGGGLVQPGGSLRLSCAASGFTISNGGIHWVRQAPGKGLEWVASIWPSGGYTSYADSVKGRFTISADTSKNTAYLQMNSLRAEDTAVYYCARFGVNYHGIMDYWGQGTLVTVSS
modifications: phage-displayed scFv specific for HLA-A2, 3E10
OD450 of binding to human HLA-A2 (human HLA-A2): 1.3

B2: tetrazine-conjugated scFv specific for human HLA-A1: scFv specific for human HLA-A1 conjugated at C-terminal cysteine with Mal-PEG4-tetrazine (protein)
scFv: DIQMTQSPSTLSASVGDRVTITCRASQSISNWLAWYQQKPGKAPNLLIYKASSLESGVPSRFSGSGSGTEFTLTISSLQPDDFATYYCQQYHDYSVTFGAGTKVEIKRGGGGSGGGGSGGGGSEVQLLESGGGLVQPGGSQRLSCVASGVPFSNYAMNWVRQAPGKGLEWVSSISGGGDRTFYADSVKGRFTISRDNSKNTLYLQMNSLGAGDTAVYYCAKTYYDFWSGYSRHLNSWGQGSLVTVSSGGGGSGGGGSC
binding to recombinant HLA-A1 (ELISA) (recombinant HLA-A1): bound
